The source of these data is patent publication US7038049B2, “Haloanilino quinazolines and therapeutic use thereof” (Parker Hughes Institute, priority 1999, dated 2006).

What all share (format): cell-based
Experiment [1] relates to NALM-6 human leukemia cells. The experiment in a line: MTT cytotoxicity assay, NALM-6. Particulars: Homo sapiens, 24–36 hours. Here is the method: (§1) The cytotoxicity assay of various compounds against human tumor cell lines was performed using the MTT (3-[4,5-dimethylthiazol-2-yl]-2,5-diphenyl tetrazolium bromide) assay (Boehringer Mannheim Corp., Indianapolis, Ind.). Briefly, exponentially growing tumor cells were seeded into a 96-well plate at a density of 2.5×10^4 cells/well and incubated for 36 hours at 37° C. prior to drug exposure. On the day of treatment, culture medium was carefully aspirated from the wells and replaced with fresh medium containing the quinazoline compounds at concentrations ranging from 0.1 to 250 μM. Triplicate wells were used for each treatment.
(§2) Human cell lines were obtained from American Type Culture Collection (Rockville, Md.) and maintained as a continuous cell line in Dulbecco's modified Eagles' medium supplemented with 10% fetal bovine serum and antibiotics. Cells used in this study include human leukemia cells (NALM-6 and MOLT-3), human breast cancer cells ([…]), human prostate cancer cells (PC3), and human brain tumor cells (U373).
(§3) The cells were incubated with the various compounds for 24–36 hours at 37° C. in a humidified 5% CO2 atmosphere. To each well, 10 μl of MTT (0.5 mg/ml final concentration) was added and the plates were incubated at 37° C. for 4 hours to allow MTT to form formazan crystals by reacting with metabolically active cells. The formazan crystals were solubilized overnight at 37° C. in a solution containing 10% SDS in 0.01 M HCl. The absorbance of each well was measured in a microplate reader (Labsystems) at 540 nm and a reference wavelength of 690 nm. To translate the OD 540 values into the number of live cells in each well, the OD 540 values were compared to those on standard OD 540—versus—cell number curves generated for each cell line. The percent survival was calculated using the formula:
(§4) [formula] The IC50 values were calculated by non-linear regression analysis. Detection of Apoptosis
(In general: Tetrazolium dyes change colour on reduction, which living cells bring about.)

Experiment [2] deals with MOLT-3 human leukemia cells. Kind of experiment: MTT cytotoxicity assay, MOLT-3. As to conditions: Homo sapiens, 24–36 hours. The procedure: as §1, §2, §3, §4
The subject of experiment [3] is BT20 human breast cancer cells. Kind of experiment: MTT cytotoxicity assay, BT20. As to conditions: 24–36 hours. Here is the method: as §1, §2, §3, §4
For experiment [4], the system named is U373 human brain tumor cells. Kind of experiment: MTT cytotoxicity assay, U373. Particulars: 24–36 hours. The procedure:
as §1, §2, §3, §4

The mark [5] stands for this setting: NALM-6, Table 1, bromo substituted.
Setting [6] is: MOLT-3, Table 1, bromo substituted.
Where [7] appears, read: Homo sapiens, BT-20, Table 1, bromo substituted.
Setting [8] is: NALM-6, Table 3, iodide substituted.
Setting [9] is: NALM-6, Table 4, OH substituted.
[10] abbreviates: MOLT-3, Table 3, iodide substituted.
The mark [11] stands for this setting: MOLT-3, Table 4, OH substituted.
The mark [12] stands for this setting: Homo sapiens, BT-20, Table 3, iodide substituted.
[13] abbreviates: Homo sapiens, BT-20, Table 4, OH substituted.
The mark [14] stands for this setting: Homo sapiens, U373 MG, Table 3, iodide substituted.
[15] abbreviates: NALM-6, Table 2, chloro substituted.
[16] abbreviates: MOLT-3, Table 2, chloro substituted.
Setting [17] is: Homo sapiens, BT-20, Table 2, chloro substituted.
The mark [18] stands for this setting: Homo sapiens, U373 MG, Table 4, OH substituted.

What is called IC50 is the concentration that inhibits the measured activity by half. For the compound `COc1cc2ncnc(Nc3ccccc3)c2cc1OC` [HI-P258], the IC50 in experiment [1] (setting [5]), in experiment [2] (setting [6]) and in experiment [3] (setting [7]) was above 250 µM in each case.

For `COc1cc2ncnc(Nc3cc(I)c(O)c(I)c3)c2cc1OC` [HI-P294, 4-(4′-Hydroxy-3,5-diiodophenyl)-amino-6,7-dimethoxy-quinazoline], the IC50 in experiment [1] (setting [8]), in experiment [1] (setting [9]), in experiment [2] (setting [10]), in experiment [2] (setting [11]), in experiment [3] (setting [12]) and in experiment [3] (setting [13]) was above 250 µM each time. Besides, the IC50 is above 250 µM in experiment [4] (setting [14]) and above 250 µM in experiment [4] (Table 4, OH substituted).

Turning to `COc1cc2ncnc(Nc3ccc(Cl)cc3)c2cc1OC` [HI-P269, 4-(4′-Chlorophenyl)-amino-6,7-dimethoxyquinazoline], the IC50 in experiment [1] (setting [15]), in experiment [2] (setting [16]) and in experiment [3] (setting [17]) was above 250 µM in each case.

Take `COc1cc2ncnc(Nc3cc(Cl)ccc3O)c2cc1OC` [HI-P93, 4-(3′-Chlooro-6′-hydroxylphenyl)amino-6,7-dimethoxyquinazoline]: the IC50 in experiment [1] (setting [15]), in experiment [1] (setting [9]), in experiment [2] (setting [16]), in experiment [2] (setting [11]), in experiment [3] (setting [17]) and in experiment [3] (setting [13]) was above 250 µM throughout. This compound had an IC50 in experiment [4] (setting [18]) above 250 µM.

In the case of `COc1cc2ncnc(Nc3ccccc3Cl)c2cc1OC` [HI-P268, 4-(2′-Chlorophenyl)-amino-6,7-dimethoxyquinazoline], the IC50 in experiment [1] (setting [15]) was found to be 215 µM; in experiment [2] (setting [16]), 227 µM; in experiment [3] (setting [17]) it was 122 µM.

`COc1cc2ncnc(Nc3ccc(C)cc3)c2cc1OC` [HI-P234]: the IC50 in experiment [1] (setting [5]), in experiment [2] (setting [6]) and in experiment [3] (setting [7]) was above 250 µM each time.

`COc1cc2ncnc(Nc3cccc(Cl)c3)c2cc1OC` [HI-P87, 4-(3′-Chlorophenyl)-amino-6,7-dimethoxyquinazoline]: the IC50 in experiment [1] (setting [15]) is 95.9 µM; in experiment [2] (setting [16]), above 105 µM; in experiment [3] (setting [17]), above 250 µM.

In the case of `COc1cc2ncnc(Nc3ccc(O)c(I)c3)c2cc1OC` [HI-P299, 4-(4′-Hydroxy-3′-iodophenyl)-amino-6,7-dimethoxyquinazoline], the IC50 is 15.4 µM in experiment [1] (setting [8]); 66.3 µM in experiment [1] (setting [9]); 60.1 µM in experiment [2] (setting [10]); 51.2 µM in experiment [2] (setting [11]); above 250 µM in experiment [3] (setting [12]); above 250 µM in experiment [3] (setting [13]). In addition, the IC50 in experiment [4] (setting [14]) is above 250 µM; in experiment [4] (Table 4, OH substituted), above 250 µM.

On to `COc1cc2ncnc(Nc3ccc(I)cc3)c2cc1OC` [HI-P300, 4-(4′-Iodophenyl)-amino-6,7-dimethoxyquinazoline], for which the IC50 amounted to 58 µM in experiment [1] (setting [8]), 59.1 µM in experiment [2] (setting [10]), 72.6 µM in experiment [3] (setting [12]) and 116 µM in experiment [4] (setting [14]).

With `COc1cc2ncnc(Nc3ccc(Br)cc3CO)c2cc1OC` [HI-P190, 4-(4′-Bromo-6′-hydroxymethylphenyl)-amino-6,7-dimethoxyquinazoline], the IC50 in experiment [1] (setting [5]), in experiment [1] (setting [9]), in experiment [2] (setting [6]), in experiment [2] (setting [11]), in experiment [3] (setting [7]) and in experiment [3] (setting [13]) was above 250 µM in each case. In experiment [4] (setting [18]), the IC50 is above 250 µM.

Regarding `COc1cc2ncnc(Nc3c(Br)cc(Br)cc3Br)c2cc1OC` [HI-P222, 4-(2′, 4′, 6′-Tribromophenyl)amino-6,7-dimethoxyquinazoline], the IC50 in experiment [1] (setting [5]) is 34 µM; in experiment [2] (setting [6]) it was 48.3 µM; in experiment [3] (setting [7]), above 250 µM.

Consider `COc1cc2ncnc(Nc3cc(Cl)c(O)c(Cl)c3)c2cc1OC` [HI-P189, 4-(4′-Hydroxyl-3′,5′-dichlorophenyl)amino-6,7-dimethoxyquinazoline], for which the IC50 in experiment [1] (setting [15]), in experiment [1] (setting [9]), in experiment [2] (setting [16]), in experiment [2] (setting [11]), in experiment [3] (setting [17]) and in experiment [3] (setting [13]) was above 250 µM in each case. Moreover, the IC50 in experiment [4] (setting [18]) was above 250 µM.

For the compound `COc1cc2ncnc(Nc3cccc(Br)c3)c2cc1OC` [HI-P79, 4-(3′-Bromophenyl)-amino-6,7-dimethoxyquinazoline], the values for the IC50 in experiment [1] (setting [5]), in experiment [2] (setting [6]) and in experiment [3] (setting [7]) were 142 µM, 195 µM and 202 µM, respectively.

For the compound `COc1cc2ncnc(Nc3cc(Br)c(C)c(Br)c3)c2cc1OC` [HI-P212, 4-(3′,5′-Dibromo-4′-methylphenyl)-amino-6,7-dimethoxyquinazoline], the IC50 was 52.7 µM in experiment [1] (setting [5]), 54.5 µM in experiment [2] (setting [6]) and above 250 µM in experiment [3] (setting [7]).

As for `COc1cc2ncnc(Nc3ccccc3Br)c2cc1OC` [HI-P261, 4-(2′-Bromophenyl)-amino-6,7-dimethoxyquinazoline], the IC50 in experiment [1] (setting [5]) stood at 72.6 µM; in experiment [2] (setting [6]), 148 µM; in experiment [3] (setting [7]), 219 µM.

Consider `COc1cc2ncnc(Nc3ccc(O)c(Cl)c3)c2cc1OC` [HI-P197, 4-(3′-Chloro-4′-hydroxylphenyl)-amino-6,7-dimethoxyquinazoline], for which the IC50 in experiment [1] (setting [15]) was 39.3 µM; in experiment [1] (setting [9]) it was 68.5 µM; in experiment [2] (setting [16]), 68 µM; in experiment [2] (setting [11]) it was 63.8 µM; in experiment [3] (setting [17]), 137 µM; in experiment [3] (setting [13]), 71.5 µM. Moreover, the IC50 in experiment [4] (setting [18]) was above 250 µM.

On to `COc1cc2ncnc(C(=O)c3cccc(Br)c3)c2cc1OC` [HI-P164, 4-(3′-Bromobenzoyl)-6,7-dimethoxyquinazoline], for which the IC50 in experiment [1] (setting [5]) was above 250 µM; in experiment [2] (setting [6]), above 250 µM; in experiment [3] (setting [7]) it was 39.2 µM.

Regarding `COc1cc2ncnc(Nc3ccc4c(c3)Cc3cc(Br)ccc3-4)c2cc1OC` [HI-P160, 4-[(7′-Bromofluorene)-2′]-amino-6,7-dimethoxyquinazoline], the values for the IC50 in experiment [1] (setting [5]), in experiment [2] (setting [6]) and in experiment [3] (setting [7]) were 135 µM, 241 µM and 25.5 µM, respectively.

Regarding `COc1cc2ncnc(Nc3ccc(C)c(Br)c3)c2cc1OC` [HI-P111, 4-(3′-Bromo-4′-methylphenyl)-amino-6,7-dimethoxyquinazoline], the IC50 in experiment [1] (setting [5]) was 201 µM; in experiment [2] (setting [6]), above 250 µM; in experiment [3] (setting [7]) it was above 250 µM.

Regarding `COc1cc2ncnc(Nc3ccc(C)c(Br)c3Br)c2cc1OC` [HI-P210, 4-(2′,3′-Dibromo-4′-methylphenyl)-amino-6,7-dimethoxyquinazoline], the IC50 in experiment [1] (setting [5]), in experiment [2] (setting [6]) and in experiment [3] (setting [7]) was above 250 µM throughout.

In the case of `COc1cc2ncnc(Nc3ccc(Br)cc3C(=O)O)c2cc1OC` [HI-P88, 4-(4′-Bromo-2′-caboxylphenyl)-amino-6,7-dimethoxyquinazoline], the IC50 in experiment [1] (setting [5]), in experiment [2] (setting [6]) and in experiment [3] (setting [7]) was above 250 µM in each case.

As for `COc1cc2ncnc(Nc3c(Br)cccc3Br)c2cc1OC` [HI-P262, 4-(2′,6′-Dibromophenyl)-amino-6,7-dimethoxyquinazoline], the IC50 in experiment [1] (setting [5]), in experiment [2] (setting [6]) and in experiment [3] (setting [7]) was above 250 µM throughout.

`COc1cc2ncnc(Nc3ccc(O)c(Br)c3)c2cc1OC` [HI-P154, 4-(3′-Bromo-4′-hydroxylphenyl)-amino-6,7-dimethoxyquinazoline]: the IC50 was 12.5 µM in experiment [1] (setting [5]); 9.1 µM in experiment [2] (setting [6]); above 250 µM in experiment [3] (setting [7]); above 250 µM in experiment [3] (Table 4, OH substituted).

Turning to `COc1cc2ncnc(Nc3ccc(Cl)c4ccccc34)c2cc1OC` [HI-P415, 4-(4′-Chloronaphthy-1′)-amino-6,7-dimethoxyquinazoline], the IC50 in experiment [1] (setting [15]) was 67.9 µM; in experiment [2] (setting [16]) it was above 250 µM; in experiment [3] (setting [17]) it was 38.1 µM.

As for `COc1cc2ncnc(Nc3cc(Br)c(C)cc3Br)c2cc1OC` [HI-P211, 4-(2′,5′-Dibromo-4′-methylphenyl)-amino-6,7-dimethoxyquinazoline], the IC50 in experiment [1] (setting [5]), in experiment [2] (setting [6]) and in experiment [3] (setting [7]) was above 250 µM in each case.

For the compound `COc1cc2ncnc(Nc3ccc(Br)cc3)c2cc1OC` [HI-P260, 4-(4′-Bromophenyl)-amino-6,7-dimethoxyquinazoline], the 50% inhibitory concentration (IC50) in experiment [1] (setting [5]) came out at 32.4 µM; in experiment [2] (setting [6]), 51.3 µM; in experiment [3] (setting [7]), 82.1 µM.

Take `COc1cc2ncnc(Nc3c(Br)cc(C)cc3Br)c2cc1OC` [HI-P241, 4-(2′,6′-Dibromo-4′-methylphenyl)-amino-6,7-dimethoxyquinazoline]: the IC50 in experiment [1] (setting [5]), in experiment [2] (setting [6]) and in experiment [3] (setting [7]) was above 250 µM each time.
